Reference: patent US20160002204A1 (Board of Regents, The University of Texas System, priority 2014, published 2016)

Columns and labels:
[1] = target: T1, GLS1 (purified recombinant human GAC) (Homo sapiens, UniProt O94925); assay: GLS1 enzymatic activity assay (dual-coupled, Amplex UltraRed/resorufin); type: biochemical
T1 sequence (O94925 55-598 isoform O94925-3 limits assumed): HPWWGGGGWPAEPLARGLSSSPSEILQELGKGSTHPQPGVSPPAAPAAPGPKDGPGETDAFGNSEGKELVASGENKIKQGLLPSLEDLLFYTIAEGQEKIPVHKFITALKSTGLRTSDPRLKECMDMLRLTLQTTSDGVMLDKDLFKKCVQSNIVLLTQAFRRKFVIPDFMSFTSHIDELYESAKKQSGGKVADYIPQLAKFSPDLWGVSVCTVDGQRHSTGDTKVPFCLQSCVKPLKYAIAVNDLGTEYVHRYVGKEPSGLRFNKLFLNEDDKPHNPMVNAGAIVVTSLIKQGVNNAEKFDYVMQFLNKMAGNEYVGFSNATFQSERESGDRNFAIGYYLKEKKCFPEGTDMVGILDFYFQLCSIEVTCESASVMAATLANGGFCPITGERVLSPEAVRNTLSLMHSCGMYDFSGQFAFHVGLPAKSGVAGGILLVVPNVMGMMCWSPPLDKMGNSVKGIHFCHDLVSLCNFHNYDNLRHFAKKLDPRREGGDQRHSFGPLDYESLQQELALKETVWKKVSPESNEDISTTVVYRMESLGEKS
Outline: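 In this coupled fluorometric format, phosphate-activated GAC (2 nM, 50 mM phosphate) is pre-exposed to compound for 10 min before 1 mM glutamine addition. Product is tracked as resorufin (530/590 nm) over time or at 20 min, and potency is derived by logistic fitting.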

[2] = test system: A549 cells; assay: A549 proliferation (viability) assay, Cell Titer Fluor, 72 hours; type: cell-based; settings: Homo sapiens
Outline: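 Compound was added to A549 cells (1000/well, pre-grown 24 h in RPMI 1640 plus 10% dialyzed FBS) at 0.5% DMSO and left 72 h under 37 °C, 5% CO2, ambient O2. Live-cell fluorescence (Cell Titer Fluor) gave the EC50.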

Row | SMILES | IC50 [1] [nM] | EC50 [2] [nM]
1 | O=C(CN1CCCC1)Nc1ccn(CCC(F)Cn2cc(C(=O)NCc3cccc(OC(F)(F)F)c3)nn2)c(=O)c1 (stereo not drawn) [Example 270, 1-(2-fluoro-4-{2-oxo-4-[2-(pyrrolidin-1-yl)acetamido]-1,2-dihydropyridin-1-yl}butyl)-N-{[3-(trifluoromethoxy)phenyl]methyl}-1H-1,2,3-triazole-4-carboxamide] | 100 to 500 | 500 to 5000
2 | O=C(CN1CCCC(F)C1)Nc1ccn(CCC(F)Cn2cc(C(=O)NCc3cccc(OC(F)(F)F)c3)nn2)c(=O)c1 (stereo not drawn) [Example 275, 1-(2-fluoro-4-{4-[2-(3-fluoropiperidin-1-yl)acetamido]-2-oxo-1,2-dihydropyridin-1-yl}butyl)-N-{[3-(trifluoromethoxy)phenyl]methyl}-1H-1,2,3-triazole-4-carboxamide] | < 100 | < 100
3 | CC1(C)CN(CC(=O)Nc2ccn(CCC(F)Cn3cc(C(=O)NCc4cccc(OC(F)(F)F)c4)nn3)c(=O)c2)CCO1 (stereo not drawn) [Example 276, 1-(4-{4-[2-(2,2-dimethylmorpholin-4-yl)acetamido]-2-oxo-1,2-dihydropyridin-1-yl}-2-fluorobutyl)-N-{[3-(trifluoromethoxy)phenyl]methyl}-1H-1,2,3-triazole-4-carboxamide] | < 100 | 100 to 500
4 | CC(C)(C)OC(=O)N1CC(CC(=O)Nc2ccn(CCC(F)Cn3cc(C(=O)NCc4cccc(OC(F)(F)F)c4)nn3)c(=O)c2)C1 (stereo not drawn) [Example 277, tert-butyl 3-{[(1-{3-fluoro-4-[4-({[3-(trifluoromethoxy)phenyl]methyl}carbamoyl)-1H-1,2,3-triazol-1-yl]butyl}-2-oxo-1,2-dihydropyridin-4-yl)carbamoyl]methyl}azetidine-1-carboxylate] | < 100 | 100 to 500
5 | CC1CN(CC(=O)Nc2ccn(CCC(F)Cn3cc(C(=O)NCc4cccc(OC(F)(F)F)c4)nn3)c(=O)c2)CCO1 (stereo not drawn) [Example 278, 1-(2-fluoro-4-{4-[2-(2-methylmorpholin-4-yl)acetamido]-2-oxo-1,2-dihydropyridin-1-yl}butyl)-N-{[3-(trifluoromethoxy)phenyl]methyl}-1H-1,2,3-triazole-4-carboxamide] | < 100 | 100 to 500

More lines, now with the values ahead:

Row | IC50 [1] [nM] | EC50 [2] [nM] | SMILES
6 | < 100 | < 100 | CC(C)(C)OC(=O)N1CCN(CC(=O)Nc2ccn(CCC(F)Cn3cc(C(=O)NCc4cccc(OC(F)(F)F)c4)nn3)c(=O)c2)CC1 (stereo not drawn) [Example 271, tert-butyl 4-{[(1-{3-fluoro-4-[4-({[3-(trifluoromethoxy)phenyl]methyl}carbamoyl)-1H-1,2,3-triazol-1-yl]butyl}-2-oxo-1,2-dihydropyridin-4-yl)carbamoyl]methyl}piperazine-1-carboxylate]
7 | < 100 | 100 to 500 | COCC1CCN(CC(=O)Nc2ccn(CCC(F)Cn3cc(C(=O)NCc4cccc(OC(F)(F)F)c4)nn3)c(=O)c2)CC1 (stereo not drawn) [Example 272, 1-[2-fluoro-4-(4-{2-[4-(methoxymethyl)piperidin-1-yl]acetamido}-2-oxo-1,2-dihydropyridin-1-yl)butyl]-N-{[3-(trifluoromethoxy)phenyl]methyl}-1H-1,2,3-triazole-4-carboxamide]
8 | < 100 | 500 to 5000 | COC(=O)C1CCN(CC(=O)Nc2ccn(CCC(F)Cn3cc(C(=O)NCc4cccc(OC(F)(F)F)c4)nn3)c(=O)c2)CC1 (stereo not drawn) [Example 273, methyl 1-{[(1-{3-fluoro-4-[4-({[3-(trifluoromethoxy)phenyl]methyl}carbamoyl)-1H-1,2,3-triazol-1-yl]butyl}-2-oxo-1,2-dihydropyridin-4-yl)carbamoyl]methyl}piperidine-4-carboxylate]
9 | < 100 | < 100 | O=C(CN1CCCC(F)(F)C1)Nc1ccn(CCC(F)Cn2cc(C(=O)NCc3cccc(OC(F)(F)F)c3)nn2)c(=O)c1 (stereo not drawn) [Example 274, 1-(4-{4-[2-(3,3-difluoropiperidin-1-yl)acetamido]-2-oxo-1,2-dihydropyridin-1-yl}-2-fluorobutyl)-N-{[3-(trifluoromethoxy)phenyl]methyl}-1H-1,2,3-triazole-4-carboxamide]
